# PMC11513854, “De novo GTP synthesis is a metabolic vulnerability for the interception of brain metastases” (Cell Reports Medicine, 2024)
# Key:
# patient-derived BMICs [1] = assay: Migration (wound healing) assay; assay type: cell-based, human; conditions: IC80
# Protocol: Cells were plated at a density of 15,000 to 25,000 cells (depending upon the cell line) per 70 μL media supplemented with 10% FBS into two separate wells of a bi-silicon structure within a 48-well plate. The cells were allowed to adhere for 24 h at 37C within a humidified atmosphere of 5% CO2 to form a monolayer of cells. After 24 h the silicon inserts were detached from the 48-well plate, leaving behind two monolayers of cells that are separated by an empty ‘wound’ and enabling of cell migration into the exclusion zone. […] The plate was inserted into the Incucyte in vitro imaging system where the ‘wound’ was imaged periodically over time. The Incucyte scan type chosen was 300ms adherent cell-by-cell alongside phase and green imaging channels within a 10× objective. The images were uploaded to ImageJ where the wound area was calculated to determine the wound coverage percentage.
# [2] = system: primary lung CRUK0748 cell line; assay: Orthotopic injection of CRUK0748, daily oral gavage treatment; assay type: in vivo, mice; conditions: 100 mg/kg daily oral gavage, vs placebo
# Description: Next, we injected mice orthotopically with the primary lung CRUK0748 cell line and treated them daily as described earlier (see Figure S3A).
# All experimental procedures involving animal work has been reviewed and approved by McMaster University Animal Research Ethics Board. Non-obese diabetic-severe combined immunodeficient IL2r γ ^null (NSG) mice are used for all experiments. Equal numbers of male and female mice were used for all experiments. Healthy mice were 6–8 weeks at time of use. Mice are anesthetized by gas anesthesia using isoflurane (4% induction, 2.5% maintenance) before procedure. Cells were engineered to express firefly luciferase and were injected intracardially, orthotopically, or intracranially as previously described.[13]^,[14]^,[63]^,[64]^,[65] […] Mice are monitored weekly for signs of illness until endpoint.
# Fig S3. MPA m ust cross the blood brain barrier to eff ectively slow the progression of BM over tim e, related to Figures 3 and 4. a, Mice were either orthotopically (intratho racically) or intracardiac injected with lung BMICs, […]
# seven days post-injection by IVIS, (c), no significant reduction in tumor burden following t reatment completion […]
# to placebo, but (f) had the same number of human cells detected in their brains following humane endpoint by flow cytometry. n.s. = not significant.
# (1 picture or pasted object on this page, not shown here)
# patient-derived BMICs [3] = assay: Pre-treatment PDX model, intracranial engraftment of lung-BMICs; assay type: in vivo, mice; conditions: vs placebo
# Description: We decided to focus primarily on lung-BM for our in vivo experiments because they account for over 50% of all BM cases. […] This phenotype was also recapitulated in a melanoma-BM PDX model (Figures S2A and S2B).
# Comparisons were made via a two-tailed unpaired t test and data are presented as mean ± SD from 4 to 5 technical replicates. p value is indicated. (C) Schematic of experimental timeline. […] IVIS, in vivo imaging system. Comparisons were made via a two-tailed unpaired t test and data are presented as mean ± SD from 4 to 5 technical replicates. p value is indicated. […] Comparisons were made via a log rank (Mantel-Cox) test, p value is indicated. (G) Quantification of human cells in mouse brains by flow cytometry at the humane endpoint. […]
# All experimental procedures involving animal work has been reviewed and approved by McMaster University Animal Research Ethics Board. […] Mice are monitored weekly for signs of illness until endpoint.
# Bioluminescent imaging was performed using an IVIS Spectrum In Vivo Imaging System (PerkinElmer) as per the manufacturer’s instructions. Imaging and quantification of signals is controlled by the analysis software Living Image (Xenogen). […] Regions of interest were quantified by bioluminescent signal (photons per second) using Living Image software for a standardized comparison between images.
# [4] = read-out: clinically relevant plasma Cmax concentration; cited from earlier work
# CRUK0748-BM = assay: Dose-response assay on CRUK0748-BM line; assay type: cell-based, human
# Description: To obtain a clinically relevant correlate to the data aforementioned, we acquired two patient-derived lung adenocarcinoma samples: one that was derived from a patient who developed BM following their primary lung tumor diagnosis (CRUK0748), and one that was derived from a patient who, to-date, has not developed BM (CRUK0733). BM-initiating capacity was confirmed in our PDX models (Figure S1C). We harvested the tagged CRUK0748 cells from the brains of mice and cultured them in stem cell-enrichment media conditions to derive a CRUK0748-BM line.
# Dose-response assays were conducted using the same protocol apart from drugs being plated using 2-fold serial dilutions (20 μM - 39 nM) as previously described.[66] The half maximal inhibitory concentration (IC50) is determined by plotting percent cell viability by the logarithmic concentration of drug. IC80 concentrations will be used for subsequent functional assays (cell proliferation, sphere formation), as determined by the following formula: ICF=100−F/F^1/H×IC50 where F = fraction of maximal response and H = hill slope.
smiles,measurement,setting,value
"COc1c(C)c2c(c(O)c1C/C=C(\C)CCC(=O)O)C(=O)OC2 [MPA, Mycophenolic acid]",migration of patient-derived BMICs,patient-derived BMICs [1],inhibits the migration
same,number of human cells detected in mouse brains,"[2]; humane endpoint, flow cytometry",no significant difference
same,survival,[2],survived significantly longer
same,brain tumor burden,"patient-derived BMICs [3]; BMICs pre-treated at IC80, 2 weeks post-injection, IVIS",significantly reduced brain tumor burden
same,survival,"patient-derived BMICs [3]; BMICs pre-treated at IC80, intracranial engraftment",survived significantly longer
same,Cmax,[4],10 µM
same,"BMIC proliferation, dose-response",CRUK0748-BM,inhibits BMIC proliferation
